4 molecules from patent US20250092017A1, “2-PIPERIDYL OR 2-PYRAZOLYL SUBSTITUTED PYRIMIDINE COMPOUND SERVING AS EGFR INHIBITOR” (SUZHOU PUHE BIOPHARMA CO., LTD., priority 2022, published 2025) can be followed below.

A value given as a limit tells only on which side of the number the result lay.

In one series the target is T1, Ba/F3-FL-EGFR (Homo sapiens, UniProt P00533).
T1 construct: FL read as full length
The series is described as follows: CellTiter-Glo proliferation, Ba/F3-FL-EGFR. In kind it is cell-based. Conditions: 72 hours, read-out: Ba/F3-FL-EGFR IC50/nM. The essentials: (§1)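 Ba/F3 lines dependent on the indicated EGFR variants were treated with compounds at a final DMSO concentration of 0.1% at 37 °C, 5% CO2. Viability was read by CellTiter-Glo luminescence, and inhibition rate was normalised to DMSO-treated cells (max) and medium-only wells (min). IC50 came from inhibition curves.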

In a further series the target is Ba/F3-FL-EGFR-L858R (Homo sapiens, UniProt P00533, L858R, cells depend on it). The series is described as follows: CellTiter-Glo proliferation, Ba/F3-FL-EGFR-L858R. In kind it is cell-based. To be noted: 72 hours, read-out: Ba/F3-FL-EGFR-L858R IC50/nM. An outline of the steps: as §1
In series [1] the target is T2, Ba/F3-TEL-EGFR-L858R-C797S (Homo sapiens, UniProt P00533, C797S/L858R, cells depend on it).
T2 construct: fused on or other part: N-terminal TEL (ETV6) oligomerising part fused to the EGFR intracellular/kinase part; P41212 (Transcription factor ETV6)
T2 sequence (P00533 whole entry C797S/L858R, the tested form may be a part): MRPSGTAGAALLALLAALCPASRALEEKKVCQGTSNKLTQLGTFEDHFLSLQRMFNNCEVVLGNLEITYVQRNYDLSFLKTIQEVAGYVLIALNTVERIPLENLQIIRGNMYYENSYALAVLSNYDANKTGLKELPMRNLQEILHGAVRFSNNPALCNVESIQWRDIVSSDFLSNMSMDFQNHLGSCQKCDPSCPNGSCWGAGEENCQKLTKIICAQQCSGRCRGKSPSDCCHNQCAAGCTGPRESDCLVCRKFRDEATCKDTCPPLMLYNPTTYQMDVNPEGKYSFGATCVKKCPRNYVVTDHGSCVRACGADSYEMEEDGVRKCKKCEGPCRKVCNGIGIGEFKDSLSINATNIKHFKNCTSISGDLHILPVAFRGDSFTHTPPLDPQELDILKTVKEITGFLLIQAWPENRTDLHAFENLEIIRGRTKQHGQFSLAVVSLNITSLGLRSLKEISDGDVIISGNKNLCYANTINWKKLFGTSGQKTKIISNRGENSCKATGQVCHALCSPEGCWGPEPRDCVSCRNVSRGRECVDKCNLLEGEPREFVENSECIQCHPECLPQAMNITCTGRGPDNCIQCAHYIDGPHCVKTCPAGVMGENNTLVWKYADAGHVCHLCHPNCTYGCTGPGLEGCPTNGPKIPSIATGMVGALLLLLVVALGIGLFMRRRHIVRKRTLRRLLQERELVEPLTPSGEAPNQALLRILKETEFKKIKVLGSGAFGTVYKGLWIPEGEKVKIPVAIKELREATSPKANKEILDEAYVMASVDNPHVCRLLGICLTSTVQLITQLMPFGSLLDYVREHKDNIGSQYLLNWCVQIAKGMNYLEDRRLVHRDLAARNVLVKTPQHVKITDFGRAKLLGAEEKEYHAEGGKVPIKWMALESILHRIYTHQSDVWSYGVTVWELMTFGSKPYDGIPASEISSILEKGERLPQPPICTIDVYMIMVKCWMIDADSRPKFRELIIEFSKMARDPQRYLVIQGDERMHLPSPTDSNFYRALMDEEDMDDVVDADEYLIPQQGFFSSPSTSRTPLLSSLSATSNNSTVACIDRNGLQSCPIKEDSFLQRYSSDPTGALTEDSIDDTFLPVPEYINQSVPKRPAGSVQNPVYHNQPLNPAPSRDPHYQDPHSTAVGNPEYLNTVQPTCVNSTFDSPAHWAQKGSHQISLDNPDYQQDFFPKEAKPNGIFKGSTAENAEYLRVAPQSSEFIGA
The series can be described thus: CellTiter-Glo proliferation, Ba/F3-TEL-EGFR-L858R-C797S. Format: cell-based. Conditions: 72 hours, read-out: Ba/F3-TEL-EGFR-L858R-C797S IC50/nM. The essentials: as §1

Series [2] has as its target Ba/F3-FL-EGFR-L858R-T790M-C797S (Homo sapiens, UniProt P00533, T790M/C797S/L858R, cells depend on it). The series can be described thus: CellTiter-Glo proliferation, Ba/F3-FL-EGFR-L858R-T790M-C797S. Format: cell-based. Conditions: 72 hours, read-out: Ba/F3-FL-EGFR-L858R-T790M-C797S IC50/nM. An outline of the steps: as §1
In series [3] the test system is Ba/F3-FL-EGFR-del19-C797S. The series is described as follows: CellTiter-Glo proliferation, Ba/F3-FL-EGFR-del19-C797S. In kind it is cell-based. To be noted: 72 h, proliferation, 72 hours, CellTiter-Glo; read-out: Ba/F3-FL-EGFR-del19-C797S IC50/nM. The essentials:
as §1

For series [4], the target named is Ba/F3-FL-EGFR-del19-T790M-C797S (Homo sapiens, UniProt P00533, DEL746-750/T790M/C797S, cells depend on it). The series is described as follows: CellTiter-Glo proliferation, Ba/F3-FL-EGFR-del19-T790M-C797S. Format: cell-based. To be noted: 72 hours, read-out: Ba/F3-FL-EGFR-del19-T790M-C797S IC50/nM. Here is the method: Promega CellTiter-Glo reagent was used to detect the effects of small molecule inhibitors on the proliferation of three Ba/F3 cell lines (Ba/F3-FL-EGFR-de119, Ba/F3-FL-EGFR-de119-T790M, Ba/F3-FL-EGFR-de119-T790M-C797S).
Ba/F3-FL-EGFR-del19-T790M-C797S, sequence (P00533 with tags, fused parts or gaps DEL746-750/T790M/C797S): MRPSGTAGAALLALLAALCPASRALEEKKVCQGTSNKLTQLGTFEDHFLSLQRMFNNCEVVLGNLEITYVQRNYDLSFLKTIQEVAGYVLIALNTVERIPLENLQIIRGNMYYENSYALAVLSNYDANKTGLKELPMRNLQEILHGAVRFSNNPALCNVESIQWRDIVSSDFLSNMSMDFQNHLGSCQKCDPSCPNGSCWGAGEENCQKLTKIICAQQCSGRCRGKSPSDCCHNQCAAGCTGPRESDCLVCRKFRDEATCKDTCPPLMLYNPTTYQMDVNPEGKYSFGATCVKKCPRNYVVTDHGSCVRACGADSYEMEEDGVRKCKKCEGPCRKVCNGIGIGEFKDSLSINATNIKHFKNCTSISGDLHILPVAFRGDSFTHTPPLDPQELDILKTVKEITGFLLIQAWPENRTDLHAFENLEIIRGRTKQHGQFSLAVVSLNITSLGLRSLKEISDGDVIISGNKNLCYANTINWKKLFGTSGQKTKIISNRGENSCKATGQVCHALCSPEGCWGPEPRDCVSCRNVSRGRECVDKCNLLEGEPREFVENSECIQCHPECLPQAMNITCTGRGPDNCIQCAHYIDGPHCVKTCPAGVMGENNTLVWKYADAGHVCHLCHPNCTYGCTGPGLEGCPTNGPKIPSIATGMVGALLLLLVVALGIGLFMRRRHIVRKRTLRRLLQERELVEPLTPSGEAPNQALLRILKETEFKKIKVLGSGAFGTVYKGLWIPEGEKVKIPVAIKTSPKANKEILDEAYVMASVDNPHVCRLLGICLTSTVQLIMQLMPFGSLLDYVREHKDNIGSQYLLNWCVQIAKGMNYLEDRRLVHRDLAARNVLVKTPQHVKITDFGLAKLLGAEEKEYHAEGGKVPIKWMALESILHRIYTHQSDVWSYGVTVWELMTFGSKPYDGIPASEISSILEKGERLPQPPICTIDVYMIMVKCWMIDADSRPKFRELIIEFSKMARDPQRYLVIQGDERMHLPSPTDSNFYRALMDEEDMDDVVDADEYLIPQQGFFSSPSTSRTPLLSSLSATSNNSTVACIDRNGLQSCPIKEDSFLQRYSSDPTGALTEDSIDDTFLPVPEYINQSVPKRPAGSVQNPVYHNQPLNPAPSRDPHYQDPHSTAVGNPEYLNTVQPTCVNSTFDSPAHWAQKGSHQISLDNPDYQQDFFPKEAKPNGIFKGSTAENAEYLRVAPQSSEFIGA
The cell lines were cultured in an incubator at 37° C. and 5% CO2. Cells were passaged regularly and cells in the logarithmic phase were used for plating. 95 μL of cell suspension was added to each well of the cell plate, and culture medium without cells (containing 0.1% DMSO) was added to the Min control wells. Substance addition for compound detection cell plate: 5 μL of 20× compound working solution was added to the cell culture plate. 5 μL of DMSO-cell culture medium mixture was added to the Max control, with the final DMSO concentration of 0.1%. 5 μL of DMSO-cell culture medium mixture was added to the Max control. The final DMSO concentration was 0.1%.
Cell viability was detected by CellTiter-Glo luminescence assay. Data analysis:
The cell proliferation inhibition rate (Inhibition Rate) data was processed using the following formula: […]
wherein: RLUDrug represents the relative luminescence unit of the cells with the addition of drug, RLUMin represents the luminescence unit of the culture medium, and RLUMax represents the relative luminescence unit of the cells with the addition of DMSO.
The inhibition rates corresponding to different concentrations of compounds were calculated in EXCEL, and then the inhibition rate curve was plotted using GraphPad Prism software and related parameters including the maximum and minimum inhibition rates of cells and IC50 values were calculated.

The nature of series [5]: Liver microsome stability test, human. To be noted: human liver microsomes 0.5 mg/ml, compound 1 μM, NADPH 1 mM, within 60 minutes. In kind it is in vitro ADME. The method, then:
(§2) The compounds of the present disclosure were subjected to a liver microsome stability test. The compounds to be tested were co-incubated with liver microsomes of different species with or without the addition of NADPH. The final concentration of the compounds to be tested in the test system was 1 μM. The final concentration of NADPH was 1 mM, and the final concentration of liver microsomes was 0.5 mg/ml.

A short description of series [6]: Liver microsome stability test, mouse. In kind it is in vitro ADME. Conditions: mouse liver microsomes 0.5 mg/ml, compound 1 μM, NADPH 1 mM, within 60 minutes. Here is the method: as §2
The target of series [7] is Ba/F3-FL-EGFR-Del19 (E746-A750) (Homo sapiens, UniProt P00533, DEL746-750, cells depend on it). The series can be described thus: CellTiter-Glo proliferation, Ba/F3-FL-EGFR-Del19. Conditions: read-out: Ba/F3-FL-EGFR-Del19 (E746-A750), 72 hours.
For series [8], the target named is Ba/F3-FL-EGFR-del19/T790M (Homo sapiens, UniProt P00533, DEL746-750/T790M, cells depend on it). The series can be described thus: CellTiter-Glo proliferation, Ba/F3-FL-EGFR-del19/T790M. To be noted: read-out: Ba/F3-FL-EGFR-del19/T790M IC50/nM, 72 hours.
Ba/F3-FL-EGFR-del19/T790M, sequence (P00533 with tags, fused parts or gaps DEL746-750/T790M): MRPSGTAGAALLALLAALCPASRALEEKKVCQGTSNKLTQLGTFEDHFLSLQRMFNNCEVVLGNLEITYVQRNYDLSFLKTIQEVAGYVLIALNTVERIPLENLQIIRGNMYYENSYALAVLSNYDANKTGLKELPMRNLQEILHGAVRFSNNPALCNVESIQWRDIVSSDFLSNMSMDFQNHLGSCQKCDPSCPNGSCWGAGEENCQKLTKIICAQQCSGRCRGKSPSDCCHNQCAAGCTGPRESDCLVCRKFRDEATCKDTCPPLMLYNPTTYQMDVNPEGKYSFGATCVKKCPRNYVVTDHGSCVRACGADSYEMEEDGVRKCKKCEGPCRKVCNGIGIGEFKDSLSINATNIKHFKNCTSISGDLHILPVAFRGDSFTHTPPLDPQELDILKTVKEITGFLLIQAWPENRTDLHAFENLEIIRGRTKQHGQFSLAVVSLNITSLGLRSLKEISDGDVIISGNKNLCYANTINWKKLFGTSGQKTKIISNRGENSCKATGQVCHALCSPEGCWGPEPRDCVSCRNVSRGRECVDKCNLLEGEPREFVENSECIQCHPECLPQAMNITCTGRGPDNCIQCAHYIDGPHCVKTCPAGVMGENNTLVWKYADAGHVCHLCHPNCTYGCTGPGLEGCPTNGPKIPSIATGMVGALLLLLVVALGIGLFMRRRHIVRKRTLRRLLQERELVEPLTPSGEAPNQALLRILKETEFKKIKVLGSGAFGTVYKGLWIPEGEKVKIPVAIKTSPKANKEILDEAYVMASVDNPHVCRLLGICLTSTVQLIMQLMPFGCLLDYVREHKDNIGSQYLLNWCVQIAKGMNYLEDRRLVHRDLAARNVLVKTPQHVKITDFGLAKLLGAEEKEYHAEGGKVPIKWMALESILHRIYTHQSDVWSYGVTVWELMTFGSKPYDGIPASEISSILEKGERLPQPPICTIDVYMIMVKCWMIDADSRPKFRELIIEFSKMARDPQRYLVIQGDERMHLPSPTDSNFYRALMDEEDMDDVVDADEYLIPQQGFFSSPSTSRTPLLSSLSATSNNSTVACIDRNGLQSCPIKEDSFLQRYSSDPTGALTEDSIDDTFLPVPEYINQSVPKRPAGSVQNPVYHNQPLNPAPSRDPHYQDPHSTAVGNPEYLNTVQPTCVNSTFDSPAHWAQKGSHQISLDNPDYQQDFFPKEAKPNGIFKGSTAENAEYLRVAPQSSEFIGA
For series [9], the system named is BaF3 (del19/T790M1C797S) tumor cells. The series is described as follows: In vivo efficacy assay in BALB/c nude mice, subcutaneous BaF3 tumor. Conditions: for TGI: based on final tumor volume. The method, then:
In vivo efficacy assay in BALB/c nude mice. Details were as follows:
BaF3 (del19/T790M1C797S) tumor cells were cultured and inoculated into 6-8 weeks old female BALB/c nude mice (weighing about 20 g), with all mice being subcutaneously inoculated. The mice were cultured in an SPF-grade experimental environment, and all mice had free access to commercially certified standard diets. When the average tumor volume of the mice grew to about 150 mm^3, the test compound was orally administered daily. The dosage was as follows: blank group vehicle (DMSO/Solutol/H2O, 5/10/85). […] The tumor volume was measured three times a week with a two-dimensional caliper, and the animals were weighed every day. […] The volume calculation formula is: V=1/2a*b^2, where a represents the long diameter of the tumor, and b represents the short diameter of the tumor.

Where [10] appears, read: 100 mg/kg BID oral (50 mg/kg for the first 4 days, 100 mg/kg from the 5th day), after 13 days.

T1 sequence (P00533 whole entry, change not shown): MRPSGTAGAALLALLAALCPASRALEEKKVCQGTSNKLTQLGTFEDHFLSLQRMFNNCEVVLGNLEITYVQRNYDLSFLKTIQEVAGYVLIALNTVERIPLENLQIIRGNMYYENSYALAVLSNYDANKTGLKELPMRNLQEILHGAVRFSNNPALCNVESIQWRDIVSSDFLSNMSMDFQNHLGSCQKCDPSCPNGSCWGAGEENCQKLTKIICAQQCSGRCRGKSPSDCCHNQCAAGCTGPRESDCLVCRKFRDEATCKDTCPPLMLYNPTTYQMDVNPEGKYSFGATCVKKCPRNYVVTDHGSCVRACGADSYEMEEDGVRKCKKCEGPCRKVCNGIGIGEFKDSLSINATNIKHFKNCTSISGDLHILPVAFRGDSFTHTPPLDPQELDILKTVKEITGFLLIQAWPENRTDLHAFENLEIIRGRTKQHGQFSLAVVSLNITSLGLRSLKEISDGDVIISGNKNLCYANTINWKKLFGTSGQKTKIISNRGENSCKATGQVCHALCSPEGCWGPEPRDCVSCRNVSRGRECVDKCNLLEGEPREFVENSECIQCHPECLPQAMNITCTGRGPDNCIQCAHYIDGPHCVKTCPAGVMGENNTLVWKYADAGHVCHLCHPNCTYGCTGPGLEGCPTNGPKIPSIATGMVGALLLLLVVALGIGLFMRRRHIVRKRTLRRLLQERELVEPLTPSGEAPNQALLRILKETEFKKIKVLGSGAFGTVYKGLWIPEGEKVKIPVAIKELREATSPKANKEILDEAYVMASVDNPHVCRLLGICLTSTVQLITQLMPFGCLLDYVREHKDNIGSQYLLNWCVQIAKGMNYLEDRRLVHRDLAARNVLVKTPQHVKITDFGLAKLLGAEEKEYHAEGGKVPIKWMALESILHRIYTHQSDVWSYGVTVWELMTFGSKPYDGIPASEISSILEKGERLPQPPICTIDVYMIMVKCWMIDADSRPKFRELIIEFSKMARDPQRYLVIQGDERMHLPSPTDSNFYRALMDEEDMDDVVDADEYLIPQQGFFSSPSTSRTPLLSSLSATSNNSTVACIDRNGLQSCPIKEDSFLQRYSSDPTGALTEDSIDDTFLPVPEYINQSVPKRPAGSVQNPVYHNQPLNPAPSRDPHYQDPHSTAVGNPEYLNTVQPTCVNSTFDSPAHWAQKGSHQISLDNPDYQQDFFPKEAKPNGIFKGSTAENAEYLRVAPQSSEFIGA

Turning to `CC(C)c1ccc(N2C[C@H](CS(C)(=O)=O)[C@H]2C)c2cnc(Nc3ccnc(-c4cnn(S(C)(=O)=O)c4)n3)cc12` [Compound H30], the GI50 turned out to be 259 nM on Ba/F3-FL-EGFR; 10 nM at Ba/F3-FL-EGFR-L858R; 8.9 nM in series [1]; 21 nM in [2]; 7.8 nM in [4]; 15 nM in [7]. The GI50 in series [8] was 5.1 nM. In addition, the IC50 in series [3] is 9.2 nM. For the same molecule, the CLint scaled at 1 μM in [5] is 11.7 mL/min/kg; in series [6], 145 mL/min/kg.

On to `CC(C)c1ccc(N2C[C@H](N(C)S(C)(=O)=O)[C@H]2C)c2cnc(Nc3ccnc(-c4cnn(S(=O)(=O)C5CC5)c4)n3)cc12` [Compound H23], for which the GI50 on Ba/F3-FL-EGFR was 121 nM; at Ba/F3-FL-EGFR-L858R it was 3.7 nM; in series [1] it was 4.3 nM; in series [2], 10 nM; in series [4] it was 3.1 nM; in series [7], 3.1 nM. For the same molecule, the GI50 in series [8] amounted to 0.3 nM. In series [3], the IC50 is 3.1 nM. Moreover, the values for the intrinsic metabolic clearance (CLint scaled) at 1 μM in series [5] and in series [6] were less than 8.6 mL/min/kg and 448 mL/min/kg, respectively. In addition, the “Tumor volume (mm^3)” value in [9] (setting [10]) was found to be 28 mm^3. The TGI in series [9] (setting [10]) turned out to be 103%.

Consider `CC(C)c1ccc(N2C[C@H](N(C)S(C)(=O)=O)[C@H]2C)c2cnc(Nc3ccnc(N4CC[C@H](O)[C@H](F)C4)n3)cc12` [Compound P41b], for which the GI50 is 464 nM at Ba/F3-FL-EGFR; 15 nM on Ba/F3-FL-EGFR-L858R; 5.6 nM in series [1]; 3.7 nM in series [2]; 3.7 nM in [4]; 36 nM in [7]. For the same molecule, the GI50 in series [8] was 2.3 nM. For the same molecule, the IC50 in series [3] is 35 nM.

In the case of `CC(C)c1ccc(N2C[C@H](N(C)S(C)(=O)=O)[C@H]2C)c2cnc(Nc3ccnc(N4CC[C@@H](O)[C@@H](F)C4)n3)cc12` [Compound P41a], the GI50 on Ba/F3-FL-EGFR was 693 nM; on Ba/F3-FL-EGFR-L858R, 22 nM; in [1], 7.1 nM; in series [2] it was 4.6 nM; in series [4], 5.9 nM; in series [7], 54 nM. In [8], the GI50 came to 3.2 nM. In addition, the IC50 in [3] amounted to 57 nM. The “Tumor volume (mm^3)” value in series [9] (100 mg/kg, BID, oral, after 13 consecutive days of administration) is on record as 693 mm^3. Besides, the TGI in series [9] (100 mg/kg, BID, oral, after 13 consecutive days) came to 85%.
